Data reported in patent publication US20230066011A1, “PYRROLOPYRIMIDINE DERIVATIVE, AND PHARMACEUTICAL COMPOSITION FOR PREVENTING OR TREATING PROTEIN KINASE-RELATED DISEASE COMPRISING SAME AS ACTIVE INGREDIENT” (VORONOI CO., LTD., priority 2019, published 2023).

Assays:
[1] = test system: human DYRK1A and tau; experiment: Inhibition of tau phosphorylation, ClariCELL Kinase Cell-Based Assay, HEK 293 cells expressing human DYRK1A and tau; details: for inhibition at 1 µM: HEK293, read-out: % inhibition at 1 uM, tau phosphorylation, compound 1 uM; for inhibition at 0.25 µM / inhibition at 0.5 µM: HEK293, tau phosphorylation; for inhibition at 0.25 µM: compound 0.25 uM; for inhibition at 0.5 µM: compound 0.5 uM
Method: An inhibitory effect on tau phosphorylation was determined using the ClariCELL™ Kinase Cell-Based Assay service (commercially available from CamaBio USA, Inc.). Human embryonic kidney (HEK 293) cells temporarily expressing human DYRK1A and tau were exposed to the compound, and then lysed to release cell proteins. In this case, the released tau was captured on a plate, and a degree of phosphorylation was quantified by ELISA using a tau phosphorylation-specific antibody.

[2] = target: T1, human GST-DYRK1A (Homo sapiens, UniProt Q13627); experiment: GST-DYRK1A enzyme inhibition, ADP-Glo kinase assay; format: biochemical; details: ATP 10 μM, GST-DYRK1A full length, read-out: DYRK1 IC50
T1 construct: purified human GST-DYRK1A (full length, Thermo Scientifics) enzyme; purchased Thermo Scientifics
Procedure, shortened: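 Full-length human GST-DYRK1A (10 ng) with 10 μM ATP and specific substrate in 40 mM Tris-HCl pH 7.4, 20 mM MgCl2, 0.5 mg/mL BSA, 50 μM DTT, 1 h at 25 °C. ADP formation read by ADP-Glo luminescence relative to solvent control; IC50 from three data sets.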

[3] = target: T2, human GST-CLK1 (Homo sapiens, UniProt P49759); experiment: GST-CLK1 enzyme inhibition, ADP-Glo kinase assay; format: biochemical; details: ATP 10 μM, GST-CLK1 129-end
T2 construct: purified human GST-CLK1 (129-end, SignalChem) enzyme; purchased SignalChem
T2 sequence (P49759 129-484 limits assumed): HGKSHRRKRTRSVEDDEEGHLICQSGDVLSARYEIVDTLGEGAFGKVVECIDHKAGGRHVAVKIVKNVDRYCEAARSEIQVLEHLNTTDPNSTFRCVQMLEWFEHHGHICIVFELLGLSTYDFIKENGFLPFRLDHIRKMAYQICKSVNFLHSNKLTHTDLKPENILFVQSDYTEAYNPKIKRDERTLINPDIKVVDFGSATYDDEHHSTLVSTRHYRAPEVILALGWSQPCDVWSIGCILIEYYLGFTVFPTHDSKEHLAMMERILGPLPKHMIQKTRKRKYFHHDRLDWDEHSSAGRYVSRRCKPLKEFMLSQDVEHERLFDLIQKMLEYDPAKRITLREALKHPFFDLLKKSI
Procedure, shortened: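 Human GST-CLK1 (129-end, 3 ng) reacted with substrate and 10 μM ATP for 1 h at 25° C in 40 mM Tris-HCl pH 7.4, 20 mM MgCl2, 0.5 mg/mL BSA, 50 μM DTT. ADP-Glo luminescence was normalised to solvent control; IC50 (nM) from 3 data sets.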

[4] = target: LRRK2 (G2019S) (Homo sapiens, UniProt Q5S007, G2019S); experiment: LRRK2 G2019S enzyme inhibition, ADP-Glo kinase assay; format: biochemical; parameters: purchased SignalChem L10-12GG; details: ATP 25 μM
LRRK2 (G2019S), sequence (Q5S007 970-2527 G2019S limits assumed): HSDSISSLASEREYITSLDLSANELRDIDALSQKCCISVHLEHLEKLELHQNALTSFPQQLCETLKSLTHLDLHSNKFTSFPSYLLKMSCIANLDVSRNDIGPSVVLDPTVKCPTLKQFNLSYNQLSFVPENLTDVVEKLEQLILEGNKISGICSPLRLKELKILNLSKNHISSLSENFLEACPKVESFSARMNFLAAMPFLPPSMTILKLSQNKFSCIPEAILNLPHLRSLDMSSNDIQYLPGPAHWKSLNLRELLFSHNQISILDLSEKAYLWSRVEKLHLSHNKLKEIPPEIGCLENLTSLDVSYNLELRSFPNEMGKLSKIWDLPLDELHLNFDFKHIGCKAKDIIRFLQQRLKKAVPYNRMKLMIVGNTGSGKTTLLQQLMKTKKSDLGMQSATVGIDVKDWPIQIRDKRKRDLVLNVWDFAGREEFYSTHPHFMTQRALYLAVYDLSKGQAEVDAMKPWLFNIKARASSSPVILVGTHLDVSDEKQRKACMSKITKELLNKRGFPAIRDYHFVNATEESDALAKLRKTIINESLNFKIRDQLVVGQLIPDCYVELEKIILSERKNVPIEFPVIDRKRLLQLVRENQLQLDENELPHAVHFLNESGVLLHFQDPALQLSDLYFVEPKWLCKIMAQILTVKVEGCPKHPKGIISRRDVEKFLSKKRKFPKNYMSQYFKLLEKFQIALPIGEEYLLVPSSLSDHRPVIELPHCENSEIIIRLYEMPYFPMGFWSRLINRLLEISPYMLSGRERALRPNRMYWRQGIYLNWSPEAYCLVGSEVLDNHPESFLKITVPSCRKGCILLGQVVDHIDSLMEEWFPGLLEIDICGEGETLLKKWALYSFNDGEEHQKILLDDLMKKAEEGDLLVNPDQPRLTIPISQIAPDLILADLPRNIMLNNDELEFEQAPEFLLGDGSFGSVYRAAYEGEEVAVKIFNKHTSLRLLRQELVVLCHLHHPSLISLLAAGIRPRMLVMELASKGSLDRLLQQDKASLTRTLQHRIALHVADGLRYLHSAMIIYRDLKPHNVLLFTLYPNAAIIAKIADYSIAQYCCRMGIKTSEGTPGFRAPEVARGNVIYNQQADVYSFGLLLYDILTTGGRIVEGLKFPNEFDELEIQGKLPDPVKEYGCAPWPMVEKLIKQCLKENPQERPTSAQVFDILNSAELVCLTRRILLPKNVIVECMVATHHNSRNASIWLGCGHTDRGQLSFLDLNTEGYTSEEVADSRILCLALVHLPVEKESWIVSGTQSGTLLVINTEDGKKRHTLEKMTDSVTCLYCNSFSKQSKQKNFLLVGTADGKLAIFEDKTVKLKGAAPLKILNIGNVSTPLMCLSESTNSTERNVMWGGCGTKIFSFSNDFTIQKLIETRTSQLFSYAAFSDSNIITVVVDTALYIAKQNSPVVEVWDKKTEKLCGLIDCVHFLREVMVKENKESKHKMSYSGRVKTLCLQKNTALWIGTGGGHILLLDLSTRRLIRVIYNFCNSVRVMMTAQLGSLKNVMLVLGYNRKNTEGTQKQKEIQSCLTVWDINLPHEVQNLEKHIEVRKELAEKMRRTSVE
Procedure, shortened: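 Purified human LRRK2 G2019S (16 ng) with 25 μM ATP and 0.2 μg substrate, 2 h at 25° C. in Tris-HCl pH 7.4, MgCl2, BSA, DTT buffer; compounds at 12 final concentrations, 50 μM down to 0.000001024 μM. ADP-Glo luminescence versus solvent control gave IC50.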

[5] = target: LRRK2 (Homo sapiens, UniProt Q5S007); experiment: LRRK2 enzyme inhibition, ADP-Glo kinase assay; format: biochemical; parameters: purchased Invitrogen PR8604B; details: ATP 10 μM
LRRK2, sequence (Q5S007 970-2527 limits assumed): as the sequence (Q5S007 970-2527 G2019S limits assumed) above, with S1050G counted along it
Procedure, shortened: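 Purified human LRRK2 (25 ng) with 10 μM ATP and 0.2 μg substrate in 40 mM Tris-HCl pH 7.4, 20 mM MgCl2, 0.5 mg/mL BSA, 50 μM DTT, 2 h at 25° C. ADP-Glo luminescence; 12-point compound series from 50 μM final; IC50 relative to solvent control.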

SMILES | inhibition at 1 µM [1] | inhibition at 0.25 µM [1] | inhibition at 0.5 µM [1] | IC50 [2] | IC50 [3] | IC50 [4] | IC50 [5]
CC(C)Nc1nc(Nc2ccc(C(=O)N3CCN(C4COC4)CC3)c3c2OCCO3)nc2[nH]cc(C(F)(F)F)c12 [Example 441, (8-((4-(isopropylamino)-5-(trifluoromethyl)-7H-pyrrolo[2,3-d]pyrimidin-2-yl)amino)-2,3-dihydrobenzo[b] [1,4]dioxin-5-yl) (4-(oxetan-3-yl)piperazin-1-yl)methanone] | 75.5% | 19.6% | 57.4% | 101 to 300 nM | < 100 nM |  | 
CCCCNc1nc(Nc2ccc(C(=O)N3CCC(N4CCOCC4)CC3)c3c2OCC3)nc2[nH]cc(C(F)(F)F)c12 [Example 466, (7-((4-(butylamino)-5-(trifluoromethyl)-7H-pyrrolo[2,3-d]pyrimidin-2-yl)amino)-2,3-dihydrobenzo-furan-4-yl)(4-morpholino-piperidin-1-yl)methanone] | 71.3% | 9.5% | 39.2% | 301 to 1000 nM | 301 to 1000 nM | < 100 nM | 
CNc1nc(Nc2ccc(C(=O)N3CCOCC3)c3c2OCC3)nc2[nH]cc(C(F)(F)F)c12 [Example 218, (7-((4-(methylamino)-5-(trifluoromethyl)-7H-pyrrolo[2,3-d]pyrimidin-2-yl)amino)-2,3-dihydrobenzofuran-4-yl)(morpholino)methanone] | 99.4% | 57.7% | 84.3% | < 100 nM | < 100 nM |  | 
CC[C@H](C)Nc1nc(Nc2ccc(C(=O)N3CCC(N4CCOCC4)CC3)c3c2OCC3)nc2[nH]cc(C#N)c12 [Example 357, (S)-4-(sec-butylamino)-2-((4-(4-morpholino-piperidine-1-carbonyl)-2,3-dihydro-benzofuran-7-yl)amino)-7H-pyrrolo[2,3-d]pyrimidine-5-carbonitrile] | 35.4% | 19.7% | 33.1% | 301 to 1000 nM | < 100 nM | < 100 nM | 
N#Cc1c[nH]c2nc(Nc3ccc(C(=O)N4CCC(N5CCOCC5)CC4)c4c3OCC4)nc(NCC3CCCC3)c12 [Example 343, 4-((cyclo-pentylmeth-yl)amino)-2-((4-(4-morpholinopiperidine-- 1-carbonyl)-2,3-dihydro-benzofuran-7-yl)amino)-7H-pyrrolo[2,3-d]pyrimidine-5-carbonitrile] | 52% | -44.3% | 16.7% | 301 to 1000 nM | 301 to 1000 nM | < 100 nM | 
O=C(c1ccc(Nc2nc(NCC3CCCC3)c3c(C(F)(F)F)c[nH]c3n2)c2c1CCO2)N1CCC(N2CCOCC2)CC1 [Example 464, (7-((4-((cyclo-pentylmeth-yl)amino)-5-(trifluoromethyl)-7H-pyrrolo[2,3-d]pyrimidin-2-yl)amino)-2,3-dihydrobenzo-furan-4-yl)(4-morpholino-piperidin-1-yl)methanone] | 44.2% | 11.5% | 12.4% | 301 to 1000 nM | 301 to 1000 nM | < 100 nM | 
CCNc1nc(Nc2ccc(C(=O)N3CC(CO)(CO)C3)c3c2OCCO3)nc2[nH]cc(C#N)c12 [Example 326, 2-((8-(3,3-bis(hydroxy-methyl)azetidine-1-carbonyl)-2,3-dihydrobenzo[b] [1,4]dioxin-5-yl)amino)-4-(ethylamino)-7H-pyrrolo[2,3-d]pyrimidine-5-carbonitrile] | -1.8% | -0.6% | 13.6% | 101 to 300 nM | < 100 nM |  | 
CNc1nc(Nc2ccc(C(=O)N3CC(CO)(CO)C3)c3c2OCCO3)nc2[nH]cc(C#N)c12 [Example 325, 2-((8-(3,3-bis(hydroxy-methyl)azetidine-1-carbonyl)-2,3-dihydrobenzo[b] [1,4]dioxin-5-yl)amino)-4-(methylamino)-7H-pyrrolo[2,3-d]pyrimidine-5-carbonitrile] | 1.9% | 6.3% | 13.5% | 101 to 300 nM | < 100 nM |  | 
N#Cc1c[nH]c2nc(Nc3ccc(C(=O)N4CCN(C5COC5)CC4)c4c3OCCO4)nc(N[C@H]3CCOC3)c12 [Example 315, (S)-2-((8-(4-(oxetan-3-yl)piperazine-1-carbonyl)-2,3-dihydrobenzo[b] [1,4]dioxin-5-yl)amino)-4-((tetrahydrofuran-3-yl)amino)-7H-pyrrolo[2,3-d]pyrimidine-5-carbonitrile] | 16.6% | -1.8% | 8.4% | 301 to 1000 nM | < 100 nM |  | 
CCNc1nc(Nc2ccc(C(=O)N3CCOCC3)c3c2OCCO3)nc2[nH]cc(C#N)c12 [Example 119, 4-(ethylamino)-2-((8-(morpholine-4-carbonyl)-2,3-dihydrobenzo[b][1,4]dioxin-5-yl)amino)-7H-pyrrolo[2,3-d]pyrimidine-5-carbonitrile] |  |  |  | 301 to 1000 nM | < 100 nM | < 100 nM | < 100 nM
CCNc1nc(Nc2ccc(S(C)(=O)=O)cc2OC)nc2[nH]cc(C#N)c12 [Example 98, 4-(ethylamino)-2-((2-methoxy-4-(methylsulfonyl)phenyl)amino)-7H-pyrrolo[2,3-d]pyrimidine-5-carbonitrile] |  |  |  | 301 to 1000 nM | 301 to 1000 nM | < 100 nM | < 100 nM
CC(C)Nc1nc(Nc2ccc(C(=O)N3CCOCC3)c3c2OCCO3)nc2[nH]cc(C(F)(F)F)c12 [Example 167, (8-((4-(isopropylamino)-5-(trifluoromethyl)-7H-pyrrolo[2,3-d]pyrimidin-2-yl)amino)-2,3-dihydrobenzo[b][1,4]dioxin-5-yl)(morpholino)methanone] |  |  |  | 301 to 1000 nM | 301 to 1000 nM | < 100 nM | < 100 nM
N#Cc1c[nH]c2nc(Nc3ccc(C(=O)N4CCN(C5COC5)CC4)c4c3OCCO4)nc(NC3CCOCC3)c12 [Example 316, 2-((8-(4-(oxetan-3-yl)piperazine-1-carbonyl)-2,3-dihydrobenzo[b] [1,4]dioxin-5-yl)amino)-4-((tetrahydro-2H-pyran-4-yl)amino)-7H-pyrrolo[2,3-d]pyrimidine-5-carbonitrile] | 15.8% | 2.3% | 8.3% | 301 to 1000 nM | < 100 nM |  | 
CCCCNc1nc(Nc2ccc(C(=O)N3CCOCC3)c3c2OCCO3)nc2[nH]cc(C#N)c12 [Example 134, 4-(butylamino)-2-((8-(morpholine-4-carbonyl)-2,3-dihydrobenzo[b][1,4]dioxin-5-yl)amino)-7H-pyrrolo[2,3-d]pyrimidine-5-carbonitrile] |  |  |  | 301 to 1000 nM | 301 to 1000 nM | < 100 nM | < 100 nM
CCNc1nc(Nc2ccc(C(=O)N3CCC(N4CCOCC4)CC3)c3c2OCCO3)nc2[nH]cc(C(F)(F)F)c12 [Example 363, (8-((4-(ethylamino)-5-(trifluoromethyl)-7H-pyrrolo[2,3-d]pyrimidin-2-yl)amino)-2,3-dihydro-benzo[b][1,4]dioxin-5-yl)(4-morpholino-piperidin-1-yl)methanone] |  |  |  | 101 to 300 nM | < 100 nM | < 100 nM | < 100 nM
CNc1nc(Nc2ccc(S(C)(=O)=O)cc2OC)nc2[nH]cc(C(F)(F)F)c12 [Example 163, N^2-(2-methoxy-4-(methylsulfonyl)phenyl)-N^4-methyl-5-(trifluoromethyl)-7H-pyrrolo[2,3-d]pyrimidine-2,4-diamine] |  |  |  | 101 to 300 nM | 301 to 1000 nM | < 100 nM | < 100 nM
CCNc1nc(Nc2ccc(C(=O)N3CCOCC3)c3c2OCCO3)nc2[nH]cc(C(F)(F)F)c12 [Example 156, (8-((4-(ethylamino)-5-(trifluoromethyl)-7H-pyrrolo[2,3-d]pyrimidin-2-yl)amino)-2,3-dihydrobenzo[b][1,4]dioxin-5-yl)(morpholino)methanone 2,2,2-trifluoroacetate] |  |  |  | 101 to 300 nM | < 100 nM | < 100 nM | < 100 nM
